Test results published in patent US12600732B2, “Bifunctional compounds for degrading BTK via ubiquitin proteosome pathway” (NURIX THERAPEUTICS, INC., priority 2019, dated 2026).

Columns and labels:
BTK [1] = biological target: T1, BTK (Mus musculus, UniProt P35991); assay: Mouse DRF PD, BTK remaining in B cells; assay type: in vivo; settings: blood, 24 h after previous dose
T1 construct: from tissue; host or cells: mouse blood B cells / splenocytes (CD-1 or BALB/c)
Description: A method of determining the pharmacodynamic profile of BTK degraders was performed by dosing either CD-1 or BALB/c mice with CTM. The CTM was prepared in a suitable formulation and was administered via oral gavage (PO) at a suitable dose level and frequency as informed by prior pharmacokinetic and tolerability studies. Following administration of CTM, BTK levels in blood or splenocytes are measured using flow cytometry or HTRF. For assessment of BTK levels via flow cytometry, either whole blood or splenocytes were first treated with ACK RBC lysis buffer to facilitate lysing of red blood cells. Remaining cells were then stained with fluorophore-conjugated antibodies against CD45, TCR beta and CD45R (B220). Cell pellets were washed with 1×PBS, fixed, and permeabilized for twenty-four hours with Foxp3/Transcription Factor Fixation/Permeabilization Kit. Cells were then stained intracellularly with unconjugated BTK antibody and detected with a fluorophore-conjugated secondary antibody. Stained cells were run on an Attune N×T Acoustic Focusing Flow Cytometer (Thermo-Fisher A29004), and data was analyzed using FlowJo (v10.5.3) and GraphPad Prism (v7.00) software. Lymphocytes were gated for B cells defined as CD45+ TCR beta−B220+ and T cells as CD45+ TCR beta+B220−. The BTK geometric mean fluorescence intensity (MFI) was calculated for B and T cells. Percent BTK degradation for each compound-treated sample was calculated using the equation described below: % Degradation=100*(Treated sample B cell BTK MFI-treated sample T cell BTK MFI)/Vehicle B cell BTK MFI-Vehicle T cell BTK MFI)
This example evaluates potency and tolerability of BTK CTMs following multiple, consecutive days of dosing and evaluates potency of compounds for BTK degradation.
The data in the table below is from a study in which animals were dosed daily with the designated oral dose. Analysis for BTK levels was performed twenty-four hours following the previous dose.

Ikaros = biological target: T2, Ikaros (Homo sapiens, UniProt Q13422+Q96SW2); assay: Ikaros degradation in Mantle Cell Lymphoma lines (flow cytometry); assay type: cell-based; settings: treatment time 24 h
T2 construct: endogenous in cells; host or cells: Mino, Rec-1
Description: Ikaros and Aiolos Degradation in Mantle Cell Lymphoma Lines (Ikaros and Aiolos Flow Cytometry)
This example evaluates the IMiD activity of CTMs in cellular models of Mantle Cell Lymphoma (MCL). […] These assays are to determine potency of CTMs for degrading IMiD neo-substrates in cellular models of MCL and to generate data to inform efficacy studies in MCL xenografts.

BTK C481S = BTK C481S (Homo sapiens, UniProt Q06187, C481S); assay: BTK degradation (Total BTK HTRF) in TMD8 cells expressing BTK-C481S; assay type: cell-based; set-up: endogenous in cells; host or cells: TMD8 BTK-C481S (clone2C3), Cas9 RNP knock-in; settings: TMD8 BTK-C481S (clone2C3) cells, treatment time 4 h
In short: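 TMD8 cells expressing BTK-C481S were treated for four hours, then lysed for 30 min. Total BTK was measured by HTRF with Eu-cryptate donor and d2 acceptor antibodies as the 665/620 nm ratio, minus donor-only background. DC50 came from four-parameter fits of signal relative to DMSO-treated cells.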

BTK [2] = assay: Non-human primate (cyno) DRF PD, BTK remaining in B cells; assay type: in vivo; settings: blood, 24 h after previous dose
Description: This example evaluates potency and tolerability of BTK CTMs following multiple, consecutive days of dosing and examines potency of compounds for BTK and Aiolos degradation. The data in the table below is from a study in which animals were dosed daily with the designated oral dose. Analysis for BTK and Aiolos levels was performed twenty-four hours following the previous dose.

[3] = Compound plasma exposure in mouse (CD-1), daily oral dosing, same table as the cyno DRF study; assay type: in vivo; settings: CD-1, mouse
BTK [4] = biological target: BTK (Homo sapiens, UniProt Q06187); assay: BTK degradation (Total BTK HTRF) in Mino cells (Mantle Cell Lymphoma model); assay type: cell-based; set-up: endogenous in cells; host or cells: TMD8, Mino, Rec-1; settings: treatment time 4 h
Description: BTK levels were determined using Cisbio Total-BTK HTRF (Homologous Time-Resolved Fluorescence) kit (63ADK064PEG) according to the manufacturer's protocol. Briefly, cells were incubated in 1× supplied lysis buffer for 30 minutes. In an opaque white low volume 96-well plate (Cisbio, 66PL96005), cell lysate was combined with two different specific BTK antibodies, one conjugated with Eu^3+-Cryptate FRET donor and one conjugated with d2 FRET acceptor. Assay controls include wells containing cell lysate with only the Eu^3+-Cryptate FRET donor antibody and wells containing both HTRF antibodies and lysis buffer without cells or control lysate provided by Cisbio. HTRF ratio was calculated as (acceptor signal at 665 nm/donor signal at 620 nm)×10^4. Background HTRF levels were determined from the control well containing the donor, but no acceptor, antibody. Background HTRF levels were subtracted from all samples. Readouts were reported as HTRF levels relative to HTRF levels of DMSO-treated cells. Four-parameter non-linear regressions were performed in GraphPad Prism 7.02 to obtain DC50 values.
BTK Degradation (Total BTK HTRF) at Four Hours in Mino Cells
This example evaluates the potency of CTMs in a model of Mantle Cell Lymphoma (MCL). To evaluate potential therapeutic indications, BTK CTMs were assayed in models of Mantle Cell Lymphoma as with the TMD8 cells (ABC-DLBCL) above. Tested CTMs had similar potencies for BTK degradation in the MCL cell lines (Mino and Rec-1) and TMD8 cells.

[5] = 30 mg/kg PO daily, 1 day of dosing
[6] = 30 mg/kg PO daily, 14 days of dosing
[7] = 100 mg/kg PO daily, 1 day of dosing
[8] = 100 mg/kg PO daily, 14 days of dosing
[9] = 300 mg/kg PO daily, 1 day of dosing
[10] = 300 mg/kg PO daily, 14 days of dosing
[11] = 10 mg/kg PO daily, 1 day of dosing
[12] = 10 mg/kg PO daily, 14 days of dosing
[13] = 30 mg/kg, 30 mg/kg PO, 1 day of dosing
[14] = 30 mg/kg, 30 mg/kg PO, 14 days of dosing
[15] = 100 mg/kg, 100 mg/kg PO, 1 day of dosing
[16] = 100 mg/kg, 100 mg/kg PO, 14 days of dosing
[17] = 300 mg/kg, 300 mg/kg PO, 1 day of dosing
[18] = 300 mg/kg, 300 mg/kg PO, 14 days of dosing

% BTK Remaining in B cells (BTK [1]; [5]) | % BTK Remaining in B cells (BTK [1]; [6]) | % BTK Remaining in B cells (BTK [1]; [7]) | % BTK Remaining in B cells (BTK [1]; [8]) | % BTK Remaining in B cells (BTK [1]; [9]) | % BTK Remaining in B cells (BTK [1]; [10]) | DC50 (Ikaros; Mino cells) | DC50 (Ikaros; Rec-1 cells) | DC50 (BTK C481S) | AUC [3, 13] | Cmax [3, 13] | AUC [3, 14] | Cmax [3, 14] | AUC [3, 15] | Compound | % BTK Remaining in B cells (BTK [2]; [11]) | % BTK Remaining in B cells (BTK [2]; [12]) | % BTK Remaining in B cells (BTK [2]; [5]) | % BTK Remaining in B cells (BTK [2]; [6]) | % BTK Remaining in B cells (BTK [2]; [7]) | % BTK Remaining in B cells (BTK [2]; [8]) | further results
16% | 16% | 10% | 11% | 8% | 10% | 1400 nM | 72 nM | 1.8 nM | 2.32 µM·h | 230 nM | 2.22 µM·h | 250 nM | 4.15 µM·h | CN1CCN([C@@H]2CCCN(c3cnc(C(N)=O)c(Nc4ccc(C5CCN(C[C@H]6CCN(c7ccc8c(c7)C(=O)N(C7CCC(=O)NC7=O)C8=O)C6)CC5)cc4)n3)C2)C1=O (some centres unmarked) [Compound 44] | 35% | 16% | 31% | 10% | 14% | 6% | Cmax [3, 15]: 400 nM; AUC [3, 16]: 8.07 µM·h; Cmax [3, 16]: 590 nM; AUC [3, 17]: 9.53 µM·h; Cmax [3, 17]: 740 nM; AUC [3, 18]: 12.8 µM·h; Cmax [3, 18]: 940 nM; DC50 (BTK [4]): 0.56 nM
 |  |  |  |  |  |  |  | 4.1 nM |  |  |  |  |  | CN1CCN([C@@H]2CCCN(c3cnc(C(N)=O)c(Nc4ccc(C5CCN(CC6CCN(c7ccc(-c8nn(C9CCC(=O)NC9=O)c(=O)n8C)cc7)CC6)CC5)cc4)n3)C2)C1=O (some centres unmarked) [Compound 121] |  |  |  |  |  |  | 
 |  |  |  |  |  |  |  | 2 nM |  |  |  |  |  | CN1CCN([C@@H]2CCCN(c3cnc(C(N)=O)c(Nc4ccc(C5CCN(CC6CCN(c7ccc8c(=O)n(C9CCC(=O)NC9=O)ccc8c7)CC6)CC5)cc4)n3)C2)C1=O (some centres unmarked) [Compound 72] |  |  |  |  |  |  | 
11% | 6% | 3% | 2% | 2% | <1% | > 2000 nM | > 2000 nM | 1.8 nM | 23.2 µM·h | 2200 nM | 21.1 µM·h | 1700 nM | 51.3 µM·h | CN1CCN([C@H]2CCCN(c3cnc(C(N)=O)c(Nc4ccc(C5CCN(CC6CCN(c7ccc(C(=O)NC8CCC(=O)NC8=O)nc7)CC6)CC5)cc4)n3)C2)C1=O (some centres unmarked) [Compound 130] | 6% | 5% | 3% | 5% | 4% | 4% | Cmax [3, 15]: 3800 nM; AUC [3, 16]: 49.8 µM·h; Cmax [3, 16]: 3400 nM; AUC [3, 17]: 67 µM·h; Cmax [3, 17]: 5100 nM; AUC [3, 18]: 72.2 µM·h; Cmax [3, 18]: 5200 nM; DC50 (BTK [4]): 0.58 nM

Compound | % BTK Remaining in B cells (BTK [1]; [5]) | % BTK Remaining in B cells (BTK [1]; [6]) | % BTK Remaining in B cells (BTK [1]; [7]) | % BTK Remaining in B cells (BTK [1]; [8]) | % BTK Remaining in B cells (BTK [1]; [9]) | % BTK Remaining in B cells (BTK [1]; [10]) | DC50 (Ikaros; Mino cells) | DC50 (Ikaros; Rec-1 cells) | DC50 (BTK C481S) | AUC [3, 13] | Cmax [3, 13] | AUC [3, 14] | Cmax [3, 14] | AUC [3, 15] | % BTK Remaining in B cells (BTK [2]; [11]) | % BTK Remaining in B cells (BTK [2]; [12]) | % BTK Remaining in B cells (BTK [2]; [5]) | % BTK Remaining in B cells (BTK [2]; [6]) | % BTK Remaining in B cells (BTK [2]; [7]) | % BTK Remaining in B cells (BTK [2]; [8]) | further results
NC(=O)c1ncc(N2CCCCC2)nc1Nc1ccc(C2CCN(C[C@@H]3CCN(c4ccc5c(c4)C(=O)N(C4CCC(=O)NC4=O)C5=O)C3)CC2)cc1 (some centres unmarked) [Compound 149] | 11% | 8% | 10% | 5% | 6% | 2% | 130 nM | 61 nM | 14.4 nM | 12.2 µM·h | 940 nM | 22.8 µM·h | 1640 nM | 27.7 µM·h | 9% | 7% | 4% | 6% | 3% | 6% | Cmax [3, 15]: 2050 nM; AUC [3, 16]: 33.4 µM·h; Cmax [3, 16]: 2410 nM; AUC [3, 17]: 38.6 µM·h; Cmax [3, 17]: 2610 nM; AUC [3, 18]: 64.2 µM·h; Cmax [3, 18]: 4100 nM; DC50 (BTK [4]): 5.9 nM
